Tested on: 873145-292-R-J1-PDC complex spheroid viability
Test: Anticancer human tumor 873145-292-R-J1-PDC patient-derived renal clear cell carcinoma cell line growth inhibition [POLQ]
Conditions: for IC50: curve of first compound; for viability, T/C: stronger effect = lower value
In short: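 Three-cell-type spheroids modelling solid tumor plus stroma served as the readout system; POL inhibitors were tested individually and in combination, concentration ranges set by clinical Cmax where known.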

[1] = second compound 0.0316 µM, first compound 0.0316 µM
[2] = second compound 0.0316 µM, first compound 0.1 µM
[3] = second compound 0.0316 µM, first compound 0.316 µM
[4] = second compound 0.0316 µM, first compound 1 µM
[5] = second compound 0.0316 µM, first compound 3.16 µM
[6] = second compound 0.0316 µM, first compound 10 µM
[7] = second compound 0.1 µM, first compound 0.0316 µM
[8] = second compound 0.1 µM, first compound 0.1 µM
[9] = second compound 0.1 µM, first compound 0.316 µM
[10] = second compound 0.1 µM, first compound 1 µM
[11] = second compound 0.1 µM, first compound 3.16 µM
[12] = second compound 0.1 µM, first compound 10 µM
[13] = second compound 0.316 µM, first compound 0.0316 µM
[14] = second compound 0.316 µM, first compound 0.1 µM
[15] = second compound 0.316 µM, first compound 0.316 µM
[16] = second compound 0.316 µM, first compound 1 µM
[17] = second compound 0.316 µM, first compound 3.16 µM
[18] = second compound 0.316 µM, first compound 10 µM
[19] = second compound 1 µM, first compound 0.0316 µM
[20] = second compound 1 µM, first compound 0.1 µM
[21] = second compound 1 µM, first compound 0.316 µM
[22] = second compound 1 µM, first compound 1 µM
[23] = second compound 1 µM, first compound 3.16 µM
[24] = second compound 1 µM, first compound 10 µM
[25] = second compound 3.16 µM, first compound 0.0316 µM
[26] = second compound 3.16 µM, first compound 0.1 µM
[27] = second compound 3.16 µM, first compound 0.316 µM
[28] = second compound 3.16 µM, first compound 1 µM
[29] = second compound 3.16 µM, first compound 3.16 µM
[30] = second compound 3.16 µM, first compound 10 µM
[31] = second compound 10 µM, first compound 0.0316 µM
[32] = second compound 10 µM, first compound 0.1 µM
[33] = second compound 10 µM, first compound 0.316 µM
[34] = second compound 10 µM, first compound 1 µM
[35] = second compound 10 µM, first compound 3.16 µM
[36] = second compound 10 µM, first compound 10 µM
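Further: spheroids exposed to compounds for 7 days before viability readout.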
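Wherever viability, T/C is given: luminescence signal used as surrogate for viable cell content; 100% = DMSO vehicle control viability.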

CC1COCCN1c1cc(C2(O)CC3CCC(C2)O3)c2cnn(-c3ccn[nH]3)c2n1 (stereo not drawn) + Cc1cccc(N(C)C(=O)C2C(O)CCN2c2nc(C)cc(C(F)(F)F)c2C#N)c1
IC50 (second compound 0.0316 µM): 0.478 µM
IC50 (second compound 0.1 µM): 0.61 µM
IC50 (second compound 0.316 µM): 0.405 µM
IC50 (second compound 1 µM): 0.511 µM
IC50 (second compound 3.16 µM): 0.378 µM
IC50 (second compound 10 µM): 0.306 µM
viability, T/C [1]: 84.4%
viability, T/C [2]: 67.5%
viability, T/C [3]: 54%
viability, T/C [4]: 44.3%
viability, T/C [5]: 37.2%
viability, T/C [6]: 38%
viability, T/C [7]: 93.5%
viability, T/C [8]: 76.4%
viability, T/C [9]: 57.1%
viability, T/C [10]: 43.2%
viability, T/C [11]: 39.5%
viability, T/C [12]: 32%
viability, T/C [13]: 94.5%
viability, T/C [14]: 82.5%
viability, T/C [15]: 52.5%
viability, T/C [16]: 40.4%
viability, T/C [17]: 40.3%
viability, T/C [18]: 35.9%
viability, T/C [19]: 84.8%
viability, T/C [20]: 71.6%
viability, T/C [21]: 54%
viability, T/C [22]: 44.1%
viability, T/C [23]: 42.1%
viability, T/C [24]: 39.8%
viability, T/C [25]: 90.1%
viability, T/C [26]: 63.1%
viability, T/C [27]: 55.6%
viability, T/C [28]: 41.3%
viability, T/C [29]: 36.6%
viability, T/C [30]: 35.6%
viability, T/C [31]: 86.2%
viability, T/C [32]: 68.8%
viability, T/C [33]: 49%
viability, T/C [34]: 38.4%
viability, T/C [35]: 39.5%
viability, T/C [36]: 32%

O=C(Nc1ccc(O)c(NS(=O)(=O)c2ccc(F)cc2)c1)c1ccc(-c2ccccc2)cc1 + Cc1cccc(N(C)C(=O)C2C(O)CCN2c2nc(C)cc(C(F)(F)F)c2C#N)c1
IC50 (second compound 0.0316 µM): > 10 µM
IC50 (second compound 0.1 µM): > 10 µM
IC50 (second compound 0.316 µM): > 10 µM
IC50 (second compound 1 µM): > 10 µM
IC50 (second compound 3.16 µM): > 10 µM
IC50 (second compound 10 µM): > 10 µM
viability, T/C [1]: 110%
viability, T/C [2]: 98.5%
viability, T/C [3]: 105%
viability, T/C [4]: 91.6%
viability, T/C [5]: 95%
viability, T/C [6]: 110%
viability, T/C [7]: 107%
viability, T/C [8]: 112%
viability, T/C [9]: 91.7%
viability, T/C [10]: 96%
viability, T/C [11]: 105%
viability, T/C [12]: 88.6%
viability, T/C [13]: 106%
viability, T/C [14]: 103%
viability, T/C [15]: 91.3%
viability, T/C [16]: 92.8%
viability, T/C [17]: 112%
viability, T/C [18]: 102%
viability, T/C [19]: 106%
viability, T/C [20]: 109%
viability, T/C [21]: 111%
viability, T/C [22]: 93.2%
viability, T/C [23]: 103%
viability, T/C [24]: 104%
viability, T/C [25]: 94.9%
viability, T/C [26]: 105%
viability, T/C [27]: 104%
viability, T/C [28]: 99.3%
viability, T/C [29]: 99.3%
viability, T/C [30]: 95.5%
viability, T/C [31]: 96.9%
viability, T/C [32]: 107%
viability, T/C [33]: 100%
viability, T/C [34]: 93.9%
viability, T/C [35]: 111%
viability, T/C [36]: 102%

CC(=O)O[C@H]1C(=O)[C@@]2(C)[C@H]([C@H](OC(=O)c3ccccc3)[C@]3(O)C[C@H](OC(=O)[C@H](O)[C@@H](NC(=O)c4ccccc4)c4ccccc4)C(C)=C1C3(C)C)[C@]1(OC(C)=O)CO[C@@H]1C[C@@H]2O + Nc1ccc(C#CCN(C(=O)Cc2ncc(C(F)(F)F)cc2C(F)(F)F)c2ccc(F)cc2)nn1
IC50 (second compound 0.0316 µM): > 3 µM
IC50 (second compound 0.1 µM): > 3 µM
IC50 (second compound 0.316 µM): > 3 µM
IC50 (second compound 1 µM): > 3 µM
IC50 (second compound 3.16 µM): > 3 µM
IC50 (second compound 10 µM): > 3 µM
viability, T/C (second compound 0.0316 µM, first compound 0.00949 µM): 89.1%
viability, T/C (second compound 0.0316 µM, first compound 0.03 µM): 85.9%
viability, T/C (second compound 0.0316 µM, first compound 0.0949 µM): 79.5%
viability, T/C (second compound 0.0316 µM, first compound 0.3 µM): 72.9%
viability, T/C (second compound 0.0316 µM, first compound 0.949 µM): 67.6%
viability, T/C (second compound 0.0316 µM, first compound 3 µM): 71.2%
viability, T/C (second compound 0.1 µM, first compound 0.00949 µM): 85.4%
viability, T/C (second compound 0.1 µM, first compound 0.03 µM): 90.2%
viability, T/C (second compound 0.1 µM, first compound 0.0949 µM): 71.8%
viability, T/C (second compound 0.1 µM, first compound 0.3 µM): 68.3%
viability, T/C (second compound 0.1 µM, first compound 0.949 µM): 68.8%
viability, T/C (second compound 0.1 µM, first compound 3 µM): 65%
viability, T/C (second compound 0.316 µM, first compound 0.00949 µM): 90.3%
viability, T/C (second compound 0.316 µM, first compound 0.03 µM): 84.6%
viability, T/C (second compound 0.316 µM, first compound 0.0949 µM): 68.1%
viability, T/C (second compound 0.316 µM, first compound 0.3 µM): 68.8%
viability, T/C (second compound 0.316 µM, first compound 0.949 µM): 66.9%
viability, T/C (second compound 0.316 µM, first compound 3 µM): 62.8%
viability, T/C (second compound 1 µM, first compound 0.00949 µM): 85.2%
viability, T/C (second compound 1 µM, first compound 0.03 µM): 71.5%
viability, T/C (second compound 1 µM, first compound 0.0949 µM): 72.7%
viability, T/C (second compound 1 µM, first compound 0.3 µM): 70.7%
viability, T/C (second compound 1 µM, first compound 0.949 µM): 70.7%
viability, T/C (second compound 1 µM, first compound 3 µM): 68.7%
viability, T/C (second compound 3.16 µM, first compound 0.00949 µM): 87%
viability, T/C (second compound 3.16 µM, first compound 0.03 µM): 73.7%
viability, T/C (second compound 3.16 µM, first compound 0.0949 µM): 72.3%
viability, T/C (second compound 3.16 µM, first compound 0.3 µM): 72.3%
viability, T/C (second compound 3.16 µM, first compound 0.949 µM): 71.8%
viability, T/C (second compound 3.16 µM, first compound 3 µM): 69%
viability, T/C (second compound 10 µM, first compound 0.00949 µM): 81.1%
viability, T/C (second compound 10 µM, first compound 0.03 µM): 75.5%
viability, T/C (second compound 10 µM, first compound 0.0949 µM): 74.8%
viability, T/C (second compound 10 µM, first compound 0.3 µM): 67.1%
viability, T/C (second compound 10 µM, first compound 0.949 µM): 65.7%
viability, T/C (second compound 10 µM, first compound 3 µM): 74%

COc1cc(C2c3cc4c(cc3C(OC3OC5COC(C)OC5C(O)C3O)C3COC(=O)C23)OCO4)cc(OC)c1O (stereo not drawn) + Nc1ccc(C#CCN(C(=O)Cc2ncc(C(F)(F)F)cc2C(F)(F)F)c2ccc(F)cc2)nn1
IC50 (second compound 0.0316 µM): > 10 µM
IC50 (second compound 0.1 µM): > 10 µM
IC50 (second compound 0.316 µM): > 10 µM
IC50 (second compound 1 µM): > 10 µM
IC50 (second compound 3.16 µM): > 10 µM
IC50 (second compound 10 µM): > 10 µM
viability, T/C [1]: 107%
viability, T/C [2]: 104%
viability, T/C [3]: 105%
viability, T/C [4]: 95.3%
viability, T/C [5]: 82.3%
viability, T/C [6]: 68%
viability, T/C [7]: 107%
viability, T/C [8]: 118%
viability, T/C [9]: 97.7%
viability, T/C [10]: 88.6%
viability, T/C [11]: 83.9%
viability, T/C [12]: 58.7%
viability, T/C [13]: 103%
viability, T/C [14]: 106%
viability, T/C [15]: 109%
viability, T/C [16]: 98.8%
viability, T/C [17]: 87.6%
viability, T/C [18]: 62%
viability, T/C [19]: 99.5%
viability, T/C [20]: 105%
viability, T/C [21]: 107%
viability, T/C [22]: 95.3%
viability, T/C [23]: 87.4%
viability, T/C [24]: 72.8%
viability, T/C [25]: 112%
viability, T/C [26]: 109%
viability, T/C [27]: 109%
viability, T/C [28]: 93.3%
viability, T/C [29]: 76.3%
viability, T/C [30]: 58.8%
viability, T/C [31]: 103%
viability, T/C [32]: 107%
viability, T/C [33]: 110%
viability, T/C [34]: 97.1%
viability, T/C [35]: 78.5%
viability, T/C [36]: 67.3%

Source: PubChem BioAssay AID1963834 (Molecular Pharmacology Branch, DTP, NCI, 2024)
